We go through two substances from US6482410B1, “Cytotactin derivatives that stimulate attachment and neurite outgrowth, and methods of making same” (The Scripps Research Institute, priority 1994, dated 2002).

“Also recorded” adds a separate entry of the source. No end group written: not given here.

Assay [1] deals with dorsal root ganglia (DRG) neurons. Description: Two-dimensional neurite outgrowth assay, DRG, 15 hours. The assay is classed as cell-based, chicken. Conditions: DRG neurons. As for the experimental part:
Dorsal root ganglia (DRG) cells or forebrain neurons were prepared for the cell attachment assays as follows. DRG from day 6 chicken embryos or forebrains from day 7 chicken embryos were dissected into HBSS. The tissue was pelleted by centrifugation and resuspended in CMF-HBSS and incubated at 37° C. for 10 minutes. The tissue was pelleted again and resuspended in CMF-HBSS containing 0.08% trypsin and allowed to trypsinize for 20 minutes at 37° C. An equal volume of DMEM/F12, 10% FCS, 20 ng/ml nerve growth factor (NGF) (for DRG cells only), 10 μg/ml gentamycin (10% medium) was added, and the tissue was pelleted and resuspended in 2 ml of the 10% medium. The cells were triturated with a fire-polished Pasteur pipette for 15 strokes, and the cells were washed and resuspended in 10 ml of 10% medium. DRG cells were plated in a 10 cm tissue culture dish and incubated for 1 hour at 37° C. in 5% CO2, to allow for attachment of contaminating fibroblasts.
After replating, the cells were harvested, pelleted and washed three times in DMEM/F12, 1% fetal calf serum (FCS), 20 ng/ml NGF (for DRG cells only), 10 μg/ml gentamycin (1% medium), and the number of cells determined using a hemocytometer. The DRG were resuspended to a density of 6×10^5 cells/ml in attachment buffer. The neurons were resuspended to a density of 2×10^4 cells/ml in 1% medium and added to substrates and placed at 37° C., 5% CO2 for 15 hours.
After the growth period, the dishes were gently rinsed with PBS to remove unbound cells, fixed with 1% glutaraldehyde, and viewed by phase contrast microscopy. Ten to forty cells were analyzed for each substrate. Cells were judged as neurite-bearing if the length of the processes was greater than one cell diameter. All cells with neurites were photographed with a 20× objective and total neurite length per neurite-bearing cell was derived from the photographic prints. Percentage of neuronal sprouting was calculated from at least six experiments. Neurite length was calculated from at least three experiments.
This extensive neurite outgrowth after 40 hours made quantitation of the percentage of neurite-bearing cells and neurite length difficult. To analyze quantitatively the effect of CT/TN fusion proteins on DRG neurite outgrowth, DRG cells were therefore plated at low density on CT/TN or CT/TN fragments and analyzed after 15 hours in culture for the percentage of cells that sprouted neurites greater than one cell diameter and for the everage neurite length per neuron. These conditions enhanced the number of isolated cells and discouraged the cell-cell interactions and fasciculation that occurred in the long-term cultures.
The proteins used in the neurite outgrowth assays are the same as those used in the cell attachment assays. […] In addition, poly-L-lysine was adsorbed to the solid support. […] Any cells adhering to the solid support were examined for sprouting and neurite length as defined herein.
Proteins used in the neurite outgrowth assays were prepared as described in Example 5.A.2.
Dorsal root ganglia (DRG) from day 6 chicken embryos were prepared as described in Example 5.A.4. For the neurite outgrowth assays, the DRG were resuspended at a density of 2×10^4 cells/ml in 1% medium, added to solid support, and placed at 37° C. in 5% CO2 for 15 hours. After the attachment and growth period, the dishes were gently rinsed with PBS to remove unbound cells, fixed with 1% (v/v) glutaraldehyde, and viewed by phase contrast microscopy. Ten to thirty cells were analyzed for each adsorbed protein spot. Cells were judged as neurite-bearing if the length of the processes were greater than one cell diameter. All cells with neurites were photographed with a 40× objective and the total neurite length per neurite-bearing cell was derived from the prints. The percent of cells that were sprouting and the average neurite length was derived from six and three independent experiments, respectively. […]

Assay [2] deals with chicken fibroblast SL29 cells. Description: Cell attachment inhibition assay, fibroblasts on CT or CT:GST fusion proteins. The assay is classed as cell-based. Particulars: for inhibition of cell attachment to intact CT: RGD peptides 1 mg/ml, JG22 50 μg/ml, FIG. 2; for effect on cell attachment to CTfg substrate / effect on cell attachment to CTfn3 substrate / effect on cell attachment to CTfn6 substrate: equimolar substrates. As for the experimental part: In the cell attachment inhibition assay, a single cell suspension was incubated with a potential inhibitor and then allowed to settle for a fixed period of time onto a solid support that has been coated with the different proteins to be tested (Friedlander, et al., J. Cell Biol. 107: 2329-2340 (1988)). After removing the unbound and loosely bound cells by washing, the attachment and morphology of those cells remaining on the dish were analyzed.
In the cell attachment inhibition assays, cells were incubated with soluble RGD peptides and/or a monoclonal antibody prior to incubation with solid support.
The inhibitors tested were the RGD-containing soluble peptides, GRGDSP and GRGDTP and the mAb JG22 (Developmental Studies Hybridoma Bank at Department of Pharmacology and Molecular Sciences, Johns Hopkins University School of Medicine, Baltimore, Md.). JG22 is a mouse hybridoma which binds to many types of chicken cells, including fibroblasts and muscle, and is specific to chicken (Greve, et al., J. Cell. Biochem. 18: 221-229 (1982)). JG22 is known to perturb cell attachment to extracellular matrix proteins and disrupts the function of the β1 integrin.
The cell attachment inhibition assay was performed essentially as described for the cell attachment assay in Example 5.B., but with the following modifications.
The solid support and cells were prepared as described in Example 5.B. Again, the initial assay was performed using only intact CT for the preparation of the solid support. The inhibitors tested, GRGDSP, GRGDTP, and the mAb JG22, were admixed with separate aliquots of the chicken fibroblast SL29 and DRG cells prior to addition to the solid support containing intact CT. The RGD-containing peptides were added at a final concentration of 1 mg/ml. The mAb JG22 was added at a final concentration of 50 μg/ml. A combination of each of the RGD-containing peptides and mAb JG22 were also incubated with the fibroblast and DRG cells. The cells and potential inhibitors were incubated for 10 minutes at room temperature and then added to the solid support. Fibroblast and DRG cells without inhibitors were also added to the solid support.
After incubation at 37° C. in 5% CO2 for 1 hour, the solid supports were washed three times in PBS with gentle swirling to remove unattached cells. The cells attached to the solid support were fixed in 1% (v/v) glutaraldehyde in PBS and viewed by phase contrast microscopy. The attached cells were counted using a 10× objective and with an eyepiece reticle. Cells were counted in four fields per adsorbed protein spot. Each protein was tested in three separate spots. The number of cells bound was expressed as the average of the twelve measurements±the standard deviation.
The cell attachment inhibition assay was repeated as described above but using all of the CT:GST fusion proteins in place of intact CT for the preparation of the solid support as described in Example 1.
Cell attachment assays were performed essentially as follows. The chicken fibroblast cell line SL29 was grown to confluence in DMEM with 10% FCS and penicillin/streptomycin. The cells were passaged the night before the assay and seeded at a density of 1:2. Cells were harvested in calcium, magnesium free Hank's balanced salt solution (CMF-HBSS) with 20 mM Hepes buffer and 5 mM EDTA added. The cells were then washed in attachment buffer (CMF-HBSS, 10 mM Hepes, 1 mM CaCl2, 1 mM MgCl2, 0.1 mM MnCl2, 2% BSA) three times, counted in a hemocytometer, resuspended to a density of 6×10^5 cells/ml. Dorsal root ganglion (DRG) neurons were prepared for attachment assays as described in Example 5, but were washed and resuspended at a density of 6×10^5 cells/ml in attachment buffer. Inhibitors of attachment were added at this time.
To some samples GRGDSP (SEQ ID NO 11) or GRGDTP (SEQ ID NO 12) peptide was added at a concentration of 1 mg/ml. […]

The test system of another assay is type I collagen. Particulars: Dedhar et al. 1987; Hynes 1992; cited from earlier work.

Consider GRGDTP [GRGDTP], for which, in assay [1], the “effect on neurite outgrowth on CTfn3 or CTfn6 substrates” value was “inhibited neurite outgrowth” and the “effect on neurite outgrowth on polylysine-coated substrates” value is given as “not on polylysine-coated substrates”. The “inhibition of SL29 attachment to CT/TN, further analysis” value in assay [2] (1 mg/ml GRGDTP peptide) is 33%. Moreover, in assay [2], the “inhibition of cell attachment to intact CT” value is reported as 70%. In assay [2] (inhibitor added before plating), the “effect on cell attachment to CTfn5-6 substrate” value was “unaffected”, the “effect on cell attachment to CTfg substrate” value was “unaffected”, the “effect on cell attachment to CTfn3 substrate” value is recorded as “completely inhibited; also recorded: selectively inhibited” and the “effect on cell attachment to CTfn6 substrate” value is “not effective; also recorded: ineffective”. For the same substance, the “inhibition of cell attachment to collagen I” value in the assay with type I collagen was “active inhibitor; also recorded: inhibit binding to collagen I”.
Regarding Gly-Arg-Gly-Asp-Ser-Pro [GRGDSP], in assay [2], the “inhibition of cell attachment to intact CT” value was determined as 73%. Also, in assay [2] (inhibitor added before plating), the “effect on cell attachment to CTfg substrate” value is reported as “unaffected”, the “effect on cell attachment to CTfn3 substrate” value is “completely inhibited” and the “effect on cell attachment to CTfn6 substrate” value was “only partially inhibited; also recorded: could inhibit”. The “inhibition of cell attachment to collagen I” value in the assay with type I collagen is reported as “far less effective inhibitor; also recorded: had no effect; also recorded: generally has no effect”.
